Source: patent EP4458830A1, “TRICYCLIC COMPOUND, METHOD FOR PREPARING SAME, AND USE THEREOF” (Sichuan Kelun-Biotech Biopharmaceutical Co., Ltd., priority 2021, dated 2023)

Assays:
human TLR7 = molecular target: T1, human TLR7 (Homo sapiens, UniProt Q9NYK1); experiment: Agonistic activity of compounds on HEK-Blue hTLR7 cells (QUANTI-Blue reporter, OD620); format: cell-based; conditions: for EC50 / Emax: HEK-Blue hTLR7 cells; for EC50: 20 h incubation; for Emax: OD620 at which the activation effect reached the maximum; for activation effect on human TLR7: summary in words
T1 construct: host or cells: HEK-Blue hTLR7 cells (HEK293-derived reporter line; that the line is stably transfected with the human TLR7 gene is own knowledge of the vendor's product)
T1 sequence (Q9NYK1 27-1049): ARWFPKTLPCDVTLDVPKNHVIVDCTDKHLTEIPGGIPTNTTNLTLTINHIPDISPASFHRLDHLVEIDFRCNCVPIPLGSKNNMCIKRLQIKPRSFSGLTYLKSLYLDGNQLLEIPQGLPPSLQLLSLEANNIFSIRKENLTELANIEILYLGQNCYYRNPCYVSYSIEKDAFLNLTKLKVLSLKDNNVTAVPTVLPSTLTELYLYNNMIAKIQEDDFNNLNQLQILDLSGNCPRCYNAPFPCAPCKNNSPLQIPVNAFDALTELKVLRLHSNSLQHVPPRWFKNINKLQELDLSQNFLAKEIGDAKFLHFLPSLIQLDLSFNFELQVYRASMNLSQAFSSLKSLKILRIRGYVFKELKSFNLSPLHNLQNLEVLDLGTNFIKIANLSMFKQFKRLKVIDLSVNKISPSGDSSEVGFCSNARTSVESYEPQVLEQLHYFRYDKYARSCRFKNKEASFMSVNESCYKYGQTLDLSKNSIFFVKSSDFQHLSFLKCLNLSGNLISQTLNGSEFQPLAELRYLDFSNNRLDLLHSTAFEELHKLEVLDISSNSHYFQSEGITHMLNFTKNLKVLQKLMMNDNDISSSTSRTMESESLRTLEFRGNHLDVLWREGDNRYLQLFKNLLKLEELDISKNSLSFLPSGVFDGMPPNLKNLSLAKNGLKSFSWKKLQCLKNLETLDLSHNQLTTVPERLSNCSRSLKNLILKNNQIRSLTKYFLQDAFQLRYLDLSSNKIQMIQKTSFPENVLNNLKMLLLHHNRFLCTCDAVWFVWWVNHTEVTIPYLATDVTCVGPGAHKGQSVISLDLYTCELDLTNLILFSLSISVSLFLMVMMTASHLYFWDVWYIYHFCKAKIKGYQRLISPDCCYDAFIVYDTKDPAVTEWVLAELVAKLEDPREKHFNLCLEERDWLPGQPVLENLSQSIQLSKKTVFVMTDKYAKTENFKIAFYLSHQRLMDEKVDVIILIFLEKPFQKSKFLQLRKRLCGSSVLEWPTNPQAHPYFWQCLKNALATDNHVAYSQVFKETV
Procedure: • 1. HEK-Blue hTLR7 cells (Invivogen) were cultured in DMEM medium (Hyclone) containing 10% FBS heat-inactivated fetal bovine serum (Corning). On the day of detection, the cell state was observed under a microscope, the cells were collected and resuspended, and the cell concentration was adjusted after counting, 50 µL per well, the total amount of cells was 2×10^4, and the cells were inoculated in a 96-well plate. • 2. After the cells adhered to the wall overnight, 50 µL of the test compound at different concentrations was added into the well plate, so that the final concentrations were 100 µM, 33.3 µM, 11.11 µM, 3.70 µM, 1.23 µM, 0.41 µM, 0.14 µM, 0.05 µM, 0 µM, and the final concentration of DMSO was 1%. The compound was incubated with the cells in a 37°C, 5% CO2 incubator for 20 h. • 3. After the incubation, observation under microscope was performed to determine the maximum signal well, the states of the cells with the highest and lowest concentrations of the compound, and whether the compound will crystalize at high concentration. 10 µL of cell culture supernatant was taken and transferred to a new 96-well transparent plate, 90 µL of QUANTI-Blue (Invivogen) detection reagent was added to each well, and incubated at 37°C for 3 h, and OD620 was read with a multifunctional microplate reader (BMG LABTECH). • 4. EC50 was calculated by fitting with Graphpad Prism software log(agonist) vs. response - Variable slope, and Emax was the OD620 at which the activation effect of the test compound reached the maximum.

human TLR8 = molecular target: T2, human TLR8 (Homo sapiens, UniProt Q9NR97); experiment: Agonistic activity of compounds on HEK-Blue hTLR8 cells (QUANTI-Blue reporter, OD620); format: cell-based; conditions: for EC50 / Emax: HEK-Blue hTLR8 cells; for EC50: 20 hours incubation; for Emax: OD620 at which the activation effect reached the maximum; for activation effect on human TLR8: summary in words
T2 construct: host or cells: HEK-Blue hTLR8 cells (HEK293-derived reporter line; that the line is stably transfected with the human TLR8 gene is own knowledge of the vendor's product)
T2 sequence (Q9NR97 27-1041): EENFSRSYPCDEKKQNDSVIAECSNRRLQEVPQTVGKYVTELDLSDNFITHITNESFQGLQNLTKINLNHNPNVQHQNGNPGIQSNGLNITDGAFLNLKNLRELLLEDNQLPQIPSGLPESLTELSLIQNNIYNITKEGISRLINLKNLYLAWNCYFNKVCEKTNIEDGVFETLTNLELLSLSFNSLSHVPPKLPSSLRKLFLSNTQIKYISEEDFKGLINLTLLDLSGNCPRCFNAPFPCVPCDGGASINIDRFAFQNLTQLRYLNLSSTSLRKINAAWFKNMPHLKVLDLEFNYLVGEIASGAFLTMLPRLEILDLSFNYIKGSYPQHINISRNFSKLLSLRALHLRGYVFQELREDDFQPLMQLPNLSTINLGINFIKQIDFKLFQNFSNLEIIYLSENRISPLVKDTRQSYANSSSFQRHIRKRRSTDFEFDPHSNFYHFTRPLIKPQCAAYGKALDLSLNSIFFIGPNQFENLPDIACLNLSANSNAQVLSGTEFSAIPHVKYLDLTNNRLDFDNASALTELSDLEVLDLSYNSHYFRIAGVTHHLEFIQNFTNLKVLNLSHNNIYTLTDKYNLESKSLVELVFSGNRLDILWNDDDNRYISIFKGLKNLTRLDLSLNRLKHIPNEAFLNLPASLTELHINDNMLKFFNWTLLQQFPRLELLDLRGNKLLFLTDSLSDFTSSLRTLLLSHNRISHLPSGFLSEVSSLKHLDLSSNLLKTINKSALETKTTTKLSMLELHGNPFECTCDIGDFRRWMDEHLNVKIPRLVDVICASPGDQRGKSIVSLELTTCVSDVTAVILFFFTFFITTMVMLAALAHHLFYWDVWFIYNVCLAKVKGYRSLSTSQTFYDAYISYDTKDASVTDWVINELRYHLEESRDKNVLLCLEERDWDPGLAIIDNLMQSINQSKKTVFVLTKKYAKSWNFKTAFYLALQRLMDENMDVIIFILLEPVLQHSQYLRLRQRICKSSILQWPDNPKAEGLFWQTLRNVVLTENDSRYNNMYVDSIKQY
Procedure: • 1. HEK-Blue hTLR8 cells (Invivogen) were cultured in DMEM medium (Hyclone) containing 10% FBS heat-inactivated fetal bovine serum (Corning). On the day of detection, the cell state was observed under a microscope, the cells were collected and resuspended, and the cell concentration was adjusted after counting, 50 µL per well, the total amount of cells was 2×10^4, and the cells were inoculated in a 96-well plate. • 2. After the cells adhered to the wall overnight, 50 µL of the test compound at different concentrations was added to the well plate, so that the final concentrations were 100 µM, 25 µM, 6.25 µM, 1.56 µM, 0.39 µM, 0.10 µM, 0.02 µM, 0.006 µM, 0 µM, or 100 µM, 33.3 µM, 11.11 µM, 3.70 µM, 1.23 µM, 0.41 µM, 0.14 µM, 0.05 µM, 0 µM, and the final concentration of DMSO was 1%. The compound was incubated with the cells in a 37°C, 5% CO2 incubator for 20 hours. • 3. After the incubation, observation was performed under microscope to determine the maximum signal well, the state of the cells with the highest and lowest concentrations of the compound, and whether the compound will crystalize at high concentration. 10 µL of cell culture supernatant was transferred to a new 96-well transparent plate, added with 90 µL of QUANTI-Blue (Invivogen) detection reagent to each well, incubated at 37°C for 3 hours, and OD620 was read with a multifunctional microplate reader (BMG LABTECH). • 4. EC50 was calculated by fitting with Graphpad Prism software log(agonist) vs. Response - Variable slope, and Emax was the OD620 at which the activation effect of the test compound reached the maximum.

Structure (SMILES)	EC50 (human TLR7) [nM]	Emax (human TLR7) [OD620]	activation effect on human TLR7 (human TLR7)	EC50 (human TLR8) [µM]	Emax (human TLR8) [OD620]	activation effect on human TLR8 (human TLR8)
CCCCc1nc2c(N)nc3cc(C)sc3c2n1CCCCN [Compound 1, 1-(4-aminobutyl)-2-butyl-7-methyl-1H-imidazo[4,5-d]thieno[3,2-b]pyridine-4-amine]	220	1.36	strong activation effect	5.83	1.43	strong activation effect
CCCCc1nc2c(N)nc3ccsc3c2n1CCCCN [Compound 2, 1-(4-aminobutyl)-2-butyl-1H-imidazo[4,5-d]thieno[3,2-b]pyridine-4-amine]	280	1.36	strong activation effect	8.83	1.37	strong activation effect
CCCCc1nc2c(N)nc3cc(C4CCN(C)CC4)sc3c2[nH]1 [Compound 6, 2-butyl-7-(1-methylpiperidin-4-yl)-1H-imidazo[4,5-d] thieno[3,2-b]pyridine-4-amine]	440	1.08	strong activation effect	15.3	1.11	strong activation effect
CCCCc1nc2c(N)nc3ccsc3c2n1CC1CCN(C)CC1 [Compound 27, 2-butyl-1-[(1-methylhexahydropyridin-4-yl)methyl] thieno[3,2-b]imidazo[4,5-d]pyridine-4-amine]	270	1.59	strong activation effect	11.9	0.84	strong activation effect

Other lines, results leading:

EC50 (human TLR7) [nM]	Emax (human TLR7) [OD620]	activation effect on human TLR7 (human TLR7)	EC50 (human TLR8) [µM]	Emax (human TLR8) [OD620]	activation effect on human TLR8 (human TLR8)	Structure (SMILES)
470	1.43	strong activation effect	19.4	1.86	strong activation effect	CCCCc1nc2c(N)nc3cc(C)sc3c2n1CC1CCNCC1 [Compound 3, 2-butyl-7-methyl-1-(piperidin-4-ylmethyl)-1H-imidazo[4,5-d]thieno[3,2-b]pyridine-4-amine]
30	1.46	strong activation effect	18.9	0.67	strong activation effect	CCCCc1nc2c(N)nc3cc(C4CCNCC4)sc3c2n1CC1CCOCC1 [Compound 33, 2-butyl-7-(hexahydropyridin-4-yl)-1-(3,4,5,6-tetrahydro-2H-pyran-4-ylmethyl)thieno[3,2-b]imidazo[4,5-d]pyridine-4-amine]
